Reference: PubChem BioAssay AID2060328 (Molecular Pharmacology Branch, DTP, NCI, 2025)

System: MDA-MB-231 multicell spheroids, viability (%T/C)
Experiment: Anticancer human tumor MDA-MB-231 cell line growth inhibition [IpAb];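 also: viability read after seven days of drug exposure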;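 as to viability, T/C: 100% = DMSO vehicle control viability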
Details: for IC50: curve of first compound; for viability, T/C: stronger effect = lower value; active = viability on the fitted dose curve at most 10% of control; inactive = the rest
Summary of the method: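 Multi-cell spheroids of 60% tumour cells, 25% HUVEC and 15% MSC in ultra-low-attachment U-bottom wells, treated with agents combined with ipatasertib or abemaciclib. Half-log ranges top out near clinical Cmax, or 10 microM when Cmax is unknown.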

[1] = second compound 0.01 µM, first compound 0.00949 µM
[2] = second compound 0.01 µM, first compound 0.03 µM
[3] = second compound 0.01 µM, first compound 0.0949 µM
[4] = second compound 0.01 µM, first compound 0.3 µM
[5] = second compound 0.0316 µM, first compound 0.00949 µM
[6] = second compound 0.0316 µM, first compound 0.03 µM
[7] = second compound 0.0316 µM, first compound 0.0949 µM
[8] = second compound 0.0316 µM, first compound 0.3 µM
[9] = second compound 0.1 µM, first compound 0.00949 µM
[10] = second compound 0.1 µM, first compound 0.03 µM
[11] = second compound 0.1 µM, first compound 0.0949 µM
[12] = second compound 0.1 µM, first compound 0.3 µM
[13] = second compound 0.316 µM, first compound 0.00949 µM
[14] = second compound 0.316 µM, first compound 0.03 µM
[15] = second compound 0.316 µM, first compound 0.0949 µM
[16] = second compound 0.316 µM, first compound 0.3 µM
[17] = second compound 1 µM, first compound 0.00949 µM
[18] = second compound 1 µM, first compound 0.03 µM
[19] = second compound 1 µM, first compound 0.0949 µM
[20] = second compound 1 µM, first compound 0.3 µM
[21] = second compound 0.01 µM, first compound 0.0316 µM
[22] = second compound 0.01 µM, first compound 0.1 µM
[23] = second compound 0.01 µM, first compound 0.316 µM
[24] = second compound 0.01 µM, first compound 1 µM
[25] = second compound 0.0316 µM, first compound 0.0316 µM
[26] = second compound 0.0316 µM, first compound 0.1 µM
[27] = second compound 0.0316 µM, first compound 0.316 µM
[28] = second compound 0.0316 µM, first compound 1 µM
[29] = second compound 0.1 µM, first compound 0.0316 µM
[30] = second compound 0.1 µM, first compound 0.1 µM
[31] = second compound 0.1 µM, first compound 0.316 µM
[32] = second compound 0.1 µM, first compound 1 µM
[33] = second compound 0.316 µM, first compound 0.0316 µM
[34] = second compound 0.316 µM, first compound 0.1 µM
[35] = second compound 0.316 µM, first compound 0.316 µM
[36] = second compound 0.316 µM, first compound 1 µM
[37] = second compound 1 µM, first compound 0.0316 µM
[38] = second compound 1 µM, first compound 0.1 µM
[39] = second compound 1 µM, first compound 0.316 µM
[40] = second compound 1 µM, first compound 1 µM
[41] = second compound 0.01 µM, first compound 3.16 µM
[42] = second compound 0.01 µM, first compound 10 µM
[43] = second compound 0.0316 µM, first compound 3.16 µM
[44] = second compound 0.0316 µM, first compound 10 µM
[45] = second compound 0.1 µM, first compound 3.16 µM
[46] = second compound 0.1 µM, first compound 10 µM
[47] = second compound 0.316 µM, first compound 3.16 µM
[48] = second compound 0.316 µM, first compound 10 µM
[49] = second compound 1 µM, first compound 3.16 µM
[50] = second compound 1 µM, first compound 10 µM

CC(=O)c1c(C)c2cnc(Nc3ccc(N4CCNCC4)cn3)nc2n(C2CCCC2)c1=O + CCN1CCN(Cc2ccc(Nc3ncc(F)c(-c4cc(F)c5nc(C)n(C(C)C)c5c4)n3)nc2)CC1
> 0.3 µM: IC50 (second compound 1 µM)
0.0181 µM: IC50 (second compound 0.1 µM)
0.0594 µM: IC50 (second compound 0.01 µM)
0.00119 µM: IC50 (second compound 0.316 µM)
0.0443 µM: IC50 (second compound 0.0316 µM)
inactive: viability, T/C (second compound 0.01 µM, first compound 0.000949 µM) 87.9% | viability, T/C (second compound 0.01 µM, first compound 0.003 µM) 82.1% | viability, T/C [1] 74.1% | viability, T/C [2] 55.2% | viability, T/C [3] 46.3% | viability, T/C [4] 43.1% | viability, T/C (second compound 0.0316 µM, first compound 0.000949 µM) 71.8% | viability, T/C (second compound 0.0316 µM, first compound 0.003 µM) 71.5% | viability, T/C [5] 66.8% | viability, T/C [6] 52.8% | viability, T/C [7] 44.4% | viability, T/C [8] 40.4% | viability, T/C (second compound 0.1 µM, first compound 0.000949 µM) 60% | viability, T/C (second compound 0.1 µM, first compound 0.003 µM) 59.2% | viability, T/C [9] 54% | viability, T/C [10] 47.1% | viability, T/C [11] 41% | viability, T/C [12] 41.8% | viability, T/C (second compound 0.316 µM, first compound 0.000949 µM) 49.2% | viability, T/C (second compound 0.316 µM, first compound 0.003 µM) 50.9% | viability, T/C [13] 46.2% | viability, T/C [14] 44.7% | viability, T/C [15] 44% | viability, T/C [16] 42% | viability, T/C (second compound 1 µM, first compound 0.000949 µM) 55.4% | viability, T/C (second compound 1 µM, first compound 0.003 µM) 58.5% | viability, T/C [17] 53.8% | viability, T/C [18] 53.4% | viability, T/C [19] 52.8% | viability, T/C [20] 48.9%

CC(C)(C)c1cnc(CSc2cnc(NC(=O)C3CCNCC3)s2)o1 + CCN1CCN(Cc2ccc(Nc3ncc(F)c(-c4cc(F)c5nc(C)n(C(C)C)c5c4)n3)nc2)CC1
0.0363 µM: IC50 (second compound 1 µM)
0.148 µM: IC50 (second compound 0.0316 µM)
0.171 µM: IC50 (second compound 0.01 µM)
0.12 µM: IC50 (second compound 0.1 µM)
0.0333 µM: IC50 (second compound 0.316 µM)
inactive: viability, T/C [1] 92.2% | viability, T/C [2] 102% | viability, T/C [3] 106% | viability, T/C [5] 76.8% | viability, T/C [6] 82.2% | viability, T/C [7] 83.9% | viability, T/C [9] 59.1% | viability, T/C [10] 63.1% | viability, T/C [11] 66% | viability, T/C [13] 47.4% | viability, T/C [14] 53.4% | viability, T/C [15] 46.1% | viability, T/C [17] 52.7% | viability, T/C [18] 53.4% | viability, T/C [19] 34.9%
active: viability, T/C [4] 1.81% | viability, T/C (second compound 0.01 µM, first compound 0.949 µM) 0.77% | viability, T/C (second compound 0.01 µM, first compound 3 µM) 0.81% | viability, T/C [8] 1.55% | viability, T/C (second compound 0.0316 µM, first compound 0.949 µM) 0.68% | viability, T/C (second compound 0.0316 µM, first compound 3 µM) 0.85% | viability, T/C [12] 1.37% | viability, T/C (second compound 0.1 µM, first compound 0.949 µM) 0.89% | viability, T/C (second compound 0.1 µM, first compound 3 µM) 1.1% | viability, T/C [16] 1.36% | viability, T/C (second compound 0.316 µM, first compound 0.949 µM) 0.96% | viability, T/C (second compound 0.316 µM, first compound 3 µM) 0.95% | viability, T/C [20] 1.87% | viability, T/C (second compound 1 µM, first compound 0.949 µM) 1.16% | viability, T/C (second compound 1 µM, first compound 3 µM) 1.42%

COc1c(OCCCN2CCOCC2)ccc2c3n(c(=NC(=O)c4cnc(N)nc4)nc12)CCN3 + CCN1CCN(Cc2ccc(Nc3ncc(F)c(-c4cc(F)c5nc(C)n(C(C)C)c5c4)n3)nc2)CC1
< 0.00316 µM: IC50 (second compound 0.316 µM) | IC50 (second compound 1 µM)
0.00468 µM: IC50 (second compound 0.1 µM)
0.0146 µM: IC50 (second compound 0.0316 µM)
0.024 µM: IC50 (second compound 0.01 µM)
inactive: viability, T/C (second compound 0.01 µM, first compound 0.00316 µM) 81.7% | viability, T/C (second compound 0.01 µM, first compound 0.01 µM) 59% | viability, T/C [21] 50.2% | viability, T/C [22] 37.7% | viability, T/C [23] 31.7% | viability, T/C [24] 37.7% | viability, T/C (second compound 0.0316 µM, first compound 0.00316 µM) 65.5% | viability, T/C (second compound 0.0316 µM, first compound 0.01 µM) 53.1% | viability, T/C [25] 43.9% | viability, T/C [26] 34.1% | viability, T/C [27] 29.7% | viability, T/C [28] 38.5% | viability, T/C (second compound 0.1 µM, first compound 0.00316 µM) 53.7% | viability, T/C (second compound 0.1 µM, first compound 0.01 µM) 44.2% | viability, T/C [29] 36.6% | viability, T/C [30] 31.1% | viability, T/C [31] 29.1% | viability, T/C [32] 43.4% | viability, T/C (second compound 0.316 µM, first compound 0.00316 µM) 46.4% | viability, T/C (second compound 0.316 µM, first compound 0.01 µM) 41.6% | viability, T/C [33] 35.2% | viability, T/C [34] 31.7% | viability, T/C [35] 34.4% | viability, T/C [36] 67.5% | viability, T/C (second compound 1 µM, first compound 0.00316 µM) 53% | viability, T/C (second compound 1 µM, first compound 0.01 µM) 48.6% | viability, T/C [37] 46.8% | viability, T/C [38] 44.8% | viability, T/C [39] 55.1% | viability, T/C [40] 128%

Cc1nc(NC(=O)N2CCCC2C(N)=O)sc1-c1ccnc(C(C)(C)C(F)(F)F)c1 (stereo not given) + CCN1CCN(Cc2ccc(Nc3ncc(F)c(-c4cc(F)c5nc(C)n(C(C)C)c5c4)n3)nc2)CC1
< 0.0316 µM: IC50 (second compound 0.1 µM) | IC50 (second compound 0.316 µM) | IC50 (second compound 1 µM)
> 10 µM: IC50 (second compound 0.01 µM)
inactive: viability, T/C [21] 79.3% | viability, T/C [22] 61.5% | viability, T/C [23] 56% | viability, T/C [24] 55.2% | viability, T/C [41] 59.1% | viability, T/C [42] 55.4% | viability, T/C [25] 64% | viability, T/C [26] 52.2% | viability, T/C [27] 46.6% | viability, T/C [28] 45.9% | viability, T/C [43] 47.3% | viability, T/C [44] 45.4% | viability, T/C [29] 46.1% | viability, T/C [30] 41.8% | viability, T/C [31] 35.8% | viability, T/C [32] 38.4% | viability, T/C [45] 41.5% | viability, T/C [46] 41.8% | viability, T/C [33] 43.7% | viability, T/C [34] 39.3% | viability, T/C [35] 37.3% | viability, T/C [36] 37.7% | viability, T/C [47] 39.4% | viability, T/C [48] 45.3% | viability, T/C [37] 50.8% | viability, T/C [38] 48.2% | viability, T/C [39] 44.6% | viability, T/C [40] 45.9% | viability, T/C [49] 53.9% | viability, T/C [50] 61%
0.159 µM: IC50 (second compound 0.0316 µM)

Cn1nccc1Nc1nccc(-c2ccn(C(CO)c3ccc(Cl)c(F)c3)c(=O)c2)n1 (stereo not given) + CCN1CCN(Cc2ccc(Nc3ncc(F)c(-c4cc(F)c5nc(C)n(C(C)C)c5c4)n3)nc2)CC1
0.106 µM: IC50 (second compound 0.01 µM)
inactive: viability, T/C [21] 58% | viability, T/C [22] 50.2% | viability, T/C [23] 41.8% | viability, T/C [24] 37% | viability, T/C [41] 29.8% | viability, T/C [42] 21.9% | viability, T/C [25] 45.3% | viability, T/C [26] 42.2% | viability, T/C [27] 35.6% | viability, T/C [28] 28.4% | viability, T/C [43] 24.1% | viability, T/C [44] 23.9% | viability, T/C [29] 34.8% | viability, T/C [30] 34.1% | viability, T/C [31] 27.6% | viability, T/C [32] 24% | viability, T/C [45] 19.9% | viability, T/C [46] 19.2% | viability, T/C [33] 29.6% | viability, T/C [34] 27.2% | viability, T/C [35] 20.7% | viability, T/C [36] 20.6% | viability, T/C [47] 20.2% | viability, T/C [48] 18.8% | viability, T/C [37] 30.5% | viability, T/C [38] 25.7% | viability, T/C [39] 19.3% | viability, T/C [40] 20.7% | viability, T/C [49] 18.6% | viability, T/C [50] 18.7%
< 0.0316 µM: IC50 (second compound 0.0316 µM) | IC50 (second compound 0.1 µM) | IC50 (second compound 0.316 µM) | IC50 (second compound 1 µM)
